This passage reports IC50 results from patent publication US11530206B2, “Phenylaminopyrimidine amide autophagy inhibitors and methods of use thereof” (Deciphera Pharmaceuticals, LLC, priority 2019, dated 2022).

One assay concerns the target T1, ULK1 kinase (Homo sapiens, UniProt O75385).
T1 construct: purchased Eurofins 14-959
T1 sequence (O75385 with tags, fused parts or gaps): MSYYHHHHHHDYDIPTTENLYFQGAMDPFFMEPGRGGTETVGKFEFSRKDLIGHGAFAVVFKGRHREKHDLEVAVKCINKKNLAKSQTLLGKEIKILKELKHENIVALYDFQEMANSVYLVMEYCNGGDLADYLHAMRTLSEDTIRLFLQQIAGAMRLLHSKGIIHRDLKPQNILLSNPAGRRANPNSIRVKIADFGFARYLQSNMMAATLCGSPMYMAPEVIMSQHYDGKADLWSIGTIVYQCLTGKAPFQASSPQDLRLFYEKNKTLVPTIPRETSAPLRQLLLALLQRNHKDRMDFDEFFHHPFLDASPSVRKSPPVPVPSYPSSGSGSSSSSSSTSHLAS
The assay can be described thus: Biochemical assay for ULK1.2 (coupled pyruvate kinase/lactate dehydrogenase assay). The following applies: 19 nM ULK1 (residues 1-314, His tag), myelin basic protein, 1 mM ATP. As for the experimental part: Biochemical Assay for ULK1.2 (SEQ. ID NO: 1)
Inhibition of ULK1 was measured by adding serial diluted test compound (final assay concentration of 1% DMSO). A decrease in absorption at 340 nm was monitored continuously for 6 hours at 30° C. on a multi-mode microplate reader (BioTek). The reaction rate was calculated using the 2-3 h time frame. The reaction rate at each concentration of compound was converted to percent inhibition using controls (i.e. reaction with no test compound and reaction with a known inhibitor) and IC50 values were calculated by fitting a four-parameter sigmoidal curve to the data using Prism (GraphPad software).

For the next assay, the target named is T2, LRRK2 kinase (Homo sapiens, UniProt Q5S007).
T2 construct: purchased Thermo Fisher
T2 sequence (Q5S007 with tags, fused parts or gaps): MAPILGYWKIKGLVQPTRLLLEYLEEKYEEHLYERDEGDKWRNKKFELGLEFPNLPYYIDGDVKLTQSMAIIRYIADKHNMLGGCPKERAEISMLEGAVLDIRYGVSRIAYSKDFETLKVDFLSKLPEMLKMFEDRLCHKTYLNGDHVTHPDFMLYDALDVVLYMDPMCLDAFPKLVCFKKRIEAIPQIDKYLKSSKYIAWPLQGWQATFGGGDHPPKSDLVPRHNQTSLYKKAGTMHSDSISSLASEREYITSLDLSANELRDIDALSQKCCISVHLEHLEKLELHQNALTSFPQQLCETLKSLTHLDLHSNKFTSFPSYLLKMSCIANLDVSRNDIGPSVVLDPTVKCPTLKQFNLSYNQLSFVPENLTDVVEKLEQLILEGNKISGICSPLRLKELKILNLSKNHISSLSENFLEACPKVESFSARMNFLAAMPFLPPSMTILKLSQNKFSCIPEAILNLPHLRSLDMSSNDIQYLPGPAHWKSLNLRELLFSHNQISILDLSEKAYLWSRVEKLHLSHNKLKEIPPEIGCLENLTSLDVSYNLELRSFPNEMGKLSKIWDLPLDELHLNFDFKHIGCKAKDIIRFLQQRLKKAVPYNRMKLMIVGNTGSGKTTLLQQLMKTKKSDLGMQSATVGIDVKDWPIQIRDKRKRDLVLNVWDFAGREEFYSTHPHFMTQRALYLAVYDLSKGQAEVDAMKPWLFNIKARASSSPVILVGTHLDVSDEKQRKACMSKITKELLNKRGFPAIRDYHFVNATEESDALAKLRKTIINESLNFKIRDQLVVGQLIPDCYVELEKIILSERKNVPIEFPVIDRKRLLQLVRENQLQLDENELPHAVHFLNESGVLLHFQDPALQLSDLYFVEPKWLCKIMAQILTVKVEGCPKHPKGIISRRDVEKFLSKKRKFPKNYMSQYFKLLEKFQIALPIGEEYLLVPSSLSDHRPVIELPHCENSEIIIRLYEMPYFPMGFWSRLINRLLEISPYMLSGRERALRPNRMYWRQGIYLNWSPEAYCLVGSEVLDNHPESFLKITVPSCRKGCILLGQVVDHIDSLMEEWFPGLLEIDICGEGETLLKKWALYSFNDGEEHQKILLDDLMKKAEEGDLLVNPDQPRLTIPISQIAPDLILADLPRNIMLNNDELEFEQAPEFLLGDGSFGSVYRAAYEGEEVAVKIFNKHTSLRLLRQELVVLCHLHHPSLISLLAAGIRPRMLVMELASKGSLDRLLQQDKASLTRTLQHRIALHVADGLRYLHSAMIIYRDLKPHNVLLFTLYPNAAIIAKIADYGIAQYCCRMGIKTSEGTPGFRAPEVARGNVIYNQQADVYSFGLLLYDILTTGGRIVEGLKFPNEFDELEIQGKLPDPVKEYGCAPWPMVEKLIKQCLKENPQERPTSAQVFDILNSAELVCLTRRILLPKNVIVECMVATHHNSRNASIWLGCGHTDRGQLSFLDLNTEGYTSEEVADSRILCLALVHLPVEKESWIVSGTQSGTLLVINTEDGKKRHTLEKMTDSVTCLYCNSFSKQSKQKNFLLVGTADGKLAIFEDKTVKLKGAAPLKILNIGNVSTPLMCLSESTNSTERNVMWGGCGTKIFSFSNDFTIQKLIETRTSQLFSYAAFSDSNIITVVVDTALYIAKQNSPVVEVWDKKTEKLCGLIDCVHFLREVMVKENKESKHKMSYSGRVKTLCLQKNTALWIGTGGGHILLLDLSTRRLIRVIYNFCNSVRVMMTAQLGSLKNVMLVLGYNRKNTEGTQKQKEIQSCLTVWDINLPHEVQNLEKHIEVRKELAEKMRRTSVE
Put plainly: Biochemical assay for LRRK2 (coupled pyruvate kinase/lactate dehydrogenase assay). Particulars: 26.4 nM LRRK2 (residues 970-2528), peptide substrate, 1 mM ATP. As to the method:
Example 138. Biochemical Assay for LRRK2 (SEQ. ID NO: 4)
Activity of LRRK2 kinase was determined spectroscopically using a coupled pyruvate kinase/lactate dehydrogenase assay that continuously monitors the ATP hydrolysis-dependent oxidation of NADH (e.g., Schindler et al. Science (2000) 289: 1938-1942). Assays were conducted in 384-well plates (100 μL final volume) using 26.4 nM LRRK2 (Thermo Fisher), 0.1 mM peptide substrate ([…] (SEQ ID NO: 6)), 1.5 units pyruvate kinase, 2.1 units lactate dehydrogenase, 1 mM phosphoenol pyruvate, 0.28 mM NADH and 1 mM ATP in assay buffer (100 mM Tris, pH 7.5, 15 mM MgCl2, 0.5 mM DTT, 0.004% (w/v) BSA, and 0.004% Triton X-100). Inhibition of LRRK2 was measured by adding serial diluted test compound (final assay concentration of 1% DMSO). A decrease in absorption at 340 nm was monitored continuously for 6 hours at 30° C. on a multi-mode microplate reader (BioTek). The reaction rate was calculated using the 2-3 h time frame. The reaction rate at each concentration of compound was converted to percent inhibition using controls (i.e. reaction with no test compound and reaction with a known inhibitor) and IC50 values were calculated using software routines in Prism (GraphPad software).

In assay [1] the test system is ULK kinase. Put plainly: pATG13 levels of mutant KRas A549 cells after treatment with ULK inhibitors in combination with trametinib (ELISA). It is filed as cell-based, human. Particulars: A549 (KRAS mutant) lung cancer cells, 250 nM trametinib, overnight, pS318-ATG13. Summed up: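 Lysates with phosphatase/protease inhibitors assayed by pATG13 ELISA, A450 minus A540 background and blank-corrected. % ATG13 phosphorylation versus DMSO controls fitted to IC50.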
(An ELISA detects its analyte on a solid surface through an enzyme-linked reagent.)

The test system of assay [2] is ULK kinase. Put plainly: pATG13 levels of mutant KRas MiaPaCa-2 cells after treatment with ULK inhibitors in combination with trametinib (ELISA). The following applies: MiaPaCa-2 pancreatic cancer cells, 250 nM trametinib, overnight, pS318-ATG13. It is filed as cell-based, human. The procedure, abridged: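 MiaPaCa-2 cells in DMEM with 10% FBS and 2.5% horse serum were pretreated with trametinib or DMSO, then given a test-compound dose response overnight at 37° C. Lysates were assayed for phospho-ATG13 by ELISA (A450 minus A540 background, blank-corrected). % phosphorylation was calculated relative to controls and fitted to IC50.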

Another assay concerns the target T3, ULK2 kinase (Homo sapiens, UniProt Q8IYT8).
T3 construct: purchased Eurofins 14-772
The assay can be described thus: Biochemical assay for ULK2 (coupled pyruvate kinase/lactate dehydrogenase assay). The following applies: 9.7 nM ULK2 (residues 1-306, GST and His tag), myelin basic protein, 1 mM ATP; read-out: ULK2.2. As for the experimental part: Example 132. Biochemical Assay for ULK2 (SEQ. ID NO: 3)
Activity of ULK2 kinase was determined spectroscopically using a coupled pyruvate kinase/lactate dehydrogenase assay that continuously monitors the ATP hydrolysis-dependent oxidation of NADH (e.g., Schindler et al. Science (2000) 289: 1938-1942). Assays were conducted in 384-well plates (100 uL final volume) using 9.7 nM ULK2 (Eurofins CAT #14-772), 0.25 mg/mL myelin basic protein, 1.5 units pyruvate kinase, 2.1 units lactate dehydrogenase, 1 mM phosphoenol pyruvate, 0.28 mM NADH and 1 mM ATP in assay buffer (100 mM Tris, pH 7.5, 15 mM MgCl2, 0.5 mM DTT, 0.1% octyl-glucoside, 0.002% (w/v) BSA, and 0.002% Triton X-100). Inhibition of ULK2 was measured by adding serial diluted test compound (final assay concentration of 1% DMSO). A decrease in absorption at 340 nm was monitored continuously for 6 hours at 30° C. on a multi-mode microplate reader (BioTek). The reaction rate was calculated using the 2-3 h time frame. The reaction rate at each concentration of compound was converted to percent inhibition using controls (i.e. reaction with no test compound and reaction with a known inhibitor) and IC50 values were calculated by fitting a four-parameter sigmoidal curve to the data using Prism (GraphPad software).

T3 sequence (Q8IYT8 with tags, fused parts or gaps): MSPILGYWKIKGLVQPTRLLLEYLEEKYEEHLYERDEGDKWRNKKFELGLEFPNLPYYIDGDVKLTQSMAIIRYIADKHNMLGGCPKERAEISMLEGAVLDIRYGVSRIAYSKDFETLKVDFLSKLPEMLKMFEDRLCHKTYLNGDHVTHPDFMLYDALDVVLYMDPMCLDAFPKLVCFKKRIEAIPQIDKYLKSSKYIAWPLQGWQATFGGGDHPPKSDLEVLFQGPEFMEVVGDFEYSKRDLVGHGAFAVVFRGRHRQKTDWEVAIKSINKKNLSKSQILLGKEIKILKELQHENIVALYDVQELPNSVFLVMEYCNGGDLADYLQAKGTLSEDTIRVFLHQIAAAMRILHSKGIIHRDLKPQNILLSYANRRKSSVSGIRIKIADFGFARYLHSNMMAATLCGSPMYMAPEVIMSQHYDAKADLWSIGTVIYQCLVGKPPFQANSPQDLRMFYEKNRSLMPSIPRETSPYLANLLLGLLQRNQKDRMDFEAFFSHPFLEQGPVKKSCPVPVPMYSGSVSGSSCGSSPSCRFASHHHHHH

Regarding `CC1(C)CCC(=O)N1CCCNc1nc(Nc2ccc(N3CCN(C4CC4)CC3)cc2)ncc1C1CC1` [Example 1], the results for the IC50 at ULK1 kinase and at LRRK2 kinase were greater than 500 nM and greater than 600 nM, respectively.

Regarding `Cc1cc(N2CCN(C)CC2)ccc1Nc1ncc(C(F)(F)F)c(NCCCN2CCCC2=O)n1` [Example 2], the figures for the IC50 at ULK1 kinase and against LRRK2 kinase were 100 to 500 nM and 1 to 100 nM, respectively.

On to `Cc1cc(N2CCNCC2)ccc1Nc1ncc(C(F)(F)F)c(NCCCN2CCCC2=O)n1` [Example 3], for which the IC50 against ULK1 kinase was in the range of 100 to 500 nM.

With `CCc1cc(N2CCN(C)CC2)ccc1Nc1ncc(C(F)(F)F)c(NCCCN2CCCC2=O)n1` [Example 4], the IC50 lay in the range of 300 to 600 nM in the assay on ULK kinase [1], 25 to 100 nM on ULK1 kinase, 300 to 600 nM with ULK kinase [2] and 100 to 500 nM on ULK2 kinase.

Turning to `Cc1cc(C2CCNCC2)ccc1Nc1ncc(Cl)c(NCCCN2CCCCC2=O)n1` [Example 5], the IC50 on ULK1 kinase was greater than 500 nM; against LRRK2 kinase, 100 to 300 nM.

The molecule `Cc1cc(C2CCN(C)CC2)ccc1Nc1ncc(Cl)c(NCCCN2CCCCC2=O)n1` [Example 6] returned an IC50 against ULK1 kinase greater than 500 nM.

As to `Cc1cc(C2CCNCC2)ccc1Nc1ncc(C(F)(F)F)c(NCCCN2CCCCC2=O)n1` [Example 7], the results for the IC50 in the assay on ULK kinase [1], on ULK1 kinase and at ULK2 kinase were greater than 600 nM, 25 to 100 nM and 100 to 500 nM, respectively.

As to `Cc1cc(C2CCN(C)CC2)ccc1Nc1ncc(C(F)(F)F)c(NCCCN2CCCCC2=O)n1` [Example 8], the IC50 in the assay with ULK kinase [1] is 100 to 300 nM; at ULK1 kinase, 25 to 100 nM; at ULK2 kinase, 100 to 500 nM.

For the molecule `O=C1CCCCN1CCCNc1nc(Nc2ccc(N3CCCNCC3)cc2)ncc1C(F)(F)F` [Example 9, 1-(3-((2-((4-(1,4-diazepan-1-yl)phenyl)amino)-5-(trifluoromethyl)pyrimidin-4-yl)amino)propyl)piperidin-2-one], the IC50 against ULK1 kinase and at ULK2 kinase was 1 to 25 nM in each case.

Consider `CCN1CCCN(c2ccc(Nc3ncc(C(F)(F)F)c(NCCCN4CCCCC4=O)n3)cc2)CC1` [Example 10, 1-(3-((2-((4-(4-ethyl-1,4-diazepan-1-yl)phenyl)amino)-5-(trifluoromethyl)pyrimidin-4-yl)amino)propyl)piperidin-2-one], for which the IC50 lay in the range of 100 to 300 nM in the assay with ULK kinase [1], 1 to 25 nM on ULK1 kinase, 100 to 300 nM in the assay on ULK kinase [2] and 1 to 25 nM at ULK2 kinase.

With `CCc1cc(N2CCN(CC)CC2)ccc1Nc1ncc(C(F)(F)F)c(NCCCN2CCCCC2=O)n1` [Example 12], the IC50 was 10 to 100 nM in the assay on ULK kinase [1], 1 to 25 nM on ULK1 kinase, 10 to 100 nM with ULK kinase [2] and 1 to 25 nM at ULK2 kinase.

Regarding `CCN1CCN(c2ccc(Nc3ncc(C(F)(F)F)c(NCCCN4CCCCC4=O)n3)c(C3CC3)c2)CC1` [Example 13], the IC50 lay within 10 to 100 nM with ULK kinase [1], 1 to 25 nM against ULK1 kinase, 10 to 100 nM in the assay with ULK kinase [2] and 1 to 25 nM on ULK2 kinase.

Turning to `Cc1cc(N2CCNCC2)ccc1Nc1ncc(C(F)(F)F)c(NCCCN2CCCCC2=O)n1` [Example 16], the IC50 in the assay on ULK kinase [1] lay in the range of 10 to 100 nM; at ULK1 kinase it was 1 to 25 nM; in the assay with ULK kinase [2], 10 to 100 nM.

Turning to `Cc1cc(N2CCN(C(C)C)CC2)ccc1Nc1ncc(C(F)(F)F)c(NCCCN2CCCCC2=O)n1` [Example 17], the IC50 at ULK1 kinase was in the range of 1 to 25 nM.

For `CCN1CCN(c2ccc(Nc3ncc(C(F)(F)F)c(NCCCN4CCCCC4=O)n3)c(C)c2)CC1` [Example 19], the IC50 with ULK kinase [1] fell in the range of 100 to 300 nM; on ULK1 kinase it was 1 to 25 nM; with ULK kinase [2], 100 to 300 nM; on ULK2 kinase it was 25 to 100 nM.

Regarding `Cc1cc(N2CCN(C3CCC3)CC2)ccc1Nc1ncc(C(F)(F)F)c(NCCCN2CCCCC2=O)n1` [Example 21], the IC50 in the assay on ULK kinase [1] fell in the range of 300 to 600 nM; against ULK1 kinase, 1 to 25 nM; in the assay with ULK kinase [2], 100 to 300 nM; on ULK2 kinase, 1 to 25 nM.

Turning to `Cc1cc(N2CCN(C3CC3)CC2)ccc1Nc1ncc(C(F)(F)F)c(NCCCN2CCCCC2=O)n1` [Example 22], the IC50 against ULK1 kinase lay in the range of 1 to 25 nM; at ULK2 kinase it was 100 to 500 nM.

As for `CCc1cc(N2CCOCC2)ccc1Nc1ncc(Cl)c(NCCCN2CCCOCC2=O)n1` [Example 57], the IC50 is greater than 600 nM in the assay with ULK kinase [1], greater than 500 nM against ULK1 kinase and greater than 500 nM at ULK2 kinase.

Regarding `O=C1COCCCN1CCCNc1nc(Nc2ccc(N3CCOCC3)cc2C2CC2)ncc1Cl` [Example 59], the IC50 against ULK1 kinase and on ULK2 kinase was greater than 500 nM throughout.

On to `Cc1cc(N2CCN(C)CC2)ccc1Nc1ncc(C(F)(F)F)c(NCCCN2CCOCCC2=O)n1` [Example 65], for which the IC50 was in the range of 10 to 100 nM with ULK kinase [1], 1 to 25 nM on ULK1 kinase, 100 to 300 nM with ULK kinase [2] and 25 to 100 nM at ULK2 kinase.

Consider `CCc1cc(N2CCN(C)CC2)ccc1Nc1ncc(C(F)(F)F)c(NCCCN2CCOCCC2=O)n1` [Example 66], for which the IC50 lay in the range of 25 to 100 nM on ULK2 kinase and 100 to 300 nM against LRRK2 kinase.

In the case of `O=C1CCOCCN1CCCNc1nc(Nc2ccc(N3CCOCC3)cc2C2CC2)ncc1C(F)(F)F` [Example 71], the results for the IC50 on ULK1 kinase, in the assay with ULK kinase [2] and at ULK2 kinase were 1 to 25 nM, greater than 600 nM and greater than 500 nM, respectively.

Consider `CCc1cc(N2CCOCC2)ccc1Nc1ncc(C(F)(F)F)c(NCCCN2CCOCCC2=O)n1` [Example 72], for which the IC50 against ULK1 kinase was 25 to 100 nM; in the assay on ULK kinase [2], 300 to 600 nM; at ULK2 kinase, greater than 500 nM.

On to `Cc1cc(N2CCN(C)CC2)ncc1Nc1cc(NCCCN2CCCCC2=O)c(C(F)(F)F)cn1` [Example 95], for which the values for the IC50 against ULK1 kinase and at ULK2 kinase were 100 to 500 nM and greater than 500 nM, respectively.

With `Cc1cc(N2CCOCC2)ncc1Nc1cc(NCCCN2CCCCC2=O)c(C(F)(F)F)cn1` [Example 96], the IC50 against ULK1 kinase and at ULK2 kinase was greater than 500 nM in each case.
